This is an account of results in patent publication US8461182B2, “7-piperidinoalkyl-3, 4-Dihydroquinolone derivative” (Taisho Pharmaceutical Co., Ltd., priority 2008, dated 2013).

Counter-ions that a name gives are not always drawn.

In one assay the target is T1, MCH1R (Homo sapiens, UniProt Q99705).
T1 construct: IC50; other: cells stably expressing non-endogenous active MCH1R; 50 nM MCH; Fluo-4 calcium, FDSS6000
Briefly: Calcium Evaluation Test for MCH1R (FDSS assay, MCH-induced intracellular calcium increase). Format: cell-based. Conditions: cells stably expressing non-endogenous active MCH1R; 50 nM MCH; Fluo-4 calcium, FDSS6000. From the text: Calcium Evaluation Test for MCH1R
An FDSS assay can measure the intracellular calcium concentration and can evaluate the Gq-coupled receptor activity using the calcium concentration as an index. For example, the assay can determine whether an analyte is an antagonist, an inverse agonist or an agonist for a Gq-coupled receptor. The FDSS6000™ system (Hamamatsu Photonics K.K.) is designed to perform evaluation based on functionality such as measurement of intracellular calcium for high-throughput screening. Intracellular calcium release by activation of a Gq-coupled receptor can be fluorometrically measured by incorporating a calcium indicator (such as Fluo4) into cells. On the other hand, the assay cannot measure the activation of Gi- and Go-coupled receptors, because the activation is not associated with calcium signaling pathways.
Intracellular fluorescence can be rapidly and successively measured in a 96-well microplate or a 384-well microplate using a fluorometric imaging plate reader system. FDSS6000™ can simultaneously measure fluorescence in all wells sensitively, accurately and by seconds. This system is ideal for functional analysis in cells such as monitoring of an intracellular calcium flow generated within several seconds after activation of a Gq-coupled receptor.
On the day before the test, cells stably expressing non-endogenous active MCH1R were seeded into a 96-well microplate at 3×10^4 cells per well. 100 μL per well of a medium (Dulbecco's modified Eagle medium containing 10% fetal bovine serum, 2 mM glutamine, 1 mM sodium pyruvate and 0.5 mg/mL G418, pH=7.4) was used for culture. On the day of the test, the medium was removed and an assay buffer {Hank's balanced salt solution containing 20 mM HEPES, 0.5 mM probenecid, 0.05 mg/mL amaranth and 0.2% bovine serum albumin (BSA), pH=7.4} containing 2 μM Fluo-4-AM and 0.04% Pluronic F127 was added at 100 μL per well, followed by incubation in a 5% CO2 incubator at 37° C. for 30 minutes. An assay buffer containing each concentration of MCH was added at 50 μL per well, and transient changes in the intracellular calcium concentration induced by MCH were monitored using FDSS6000™ at Ex. 488 nm and Em. 530 nm for 180 seconds. In testing the antagonistic activity of the analyte, MCH was added to a final concentration of 50 nM. An inhibition curve was prepared with various concentrations of the analyte, and the concentration of the analyte inhibiting 50% of the increase in intracellular calcium when 50 nM MCH was added (IC50 value) was calculated using data analysis software Origin Ver. 6.
What is called IC50 is the midpoint of a concentration-inhibition curve. `O=C1CCc2ccc(CN3CCC(NC(=O)C(c4ccccc4)c4ccccc4)CC3)cc2N1` [Example 27, N-{1-[(2-oxo-1,2,3,4-tetrahydroquinolin-7-yl)methyl]piperidin-4-yl}-2,2-diphenylacetamide]: the IC50 came out at 19.7 nM. As to `O=C1CCc2ccc(CN3CCC(NC(=O)c4cncc(Cl)c4)CC3)cc2N1` [Example 38, 5-chloro-N-{1-[(2-oxo-1,2,3,4-tetrahydroquinolin-7-yl)methyl]piperidin-4-yl}pyridine-3-carboxamide], the IC50 worked out at 18.8 nM. On the same count and under the same terms, the same measure for `O=C1CCc2ccc(CN3CCC(NC(=O)c4cccc(Cl)c4)CC3)cc2N1` [Example 7, 3-chloro-N-{1-[(2-oxo-1,2,3,4-tetrahydroquinolin-7-yl)methyl]piperidin-4-yl}benzamide]: 9.08 nM. On the same count and under the same terms, in the case of `O=C1CCc2ccc(CN3CCC(NC(=O)c4ccc(F)c(F)c4)CC3)cc2N1` [Example 5, 3,4-difluoro-N-{1-[(2-oxo-1,2,3,4-tetrahydroquinolin-7-yl)methyl]piperidin-4-yl}benzamide] it was 1.5 nM. For `COc1cccc(C(=O)NC2CCN(Cc3cc4c(cc3F)CCC(=O)N4)CC2)c1` [Example 53, N-{1-[(6-fluoro-2-oxo-1,2,3,4-tetrahydroquinolin-7-yl)methyl]piperidin-4-yl}-3-methoxybenzamide], the IC50 was 39.3 nM.

Turning to `O=C1CCc2ccc(CN3CCC(NC(=O)COc4ccc(F)c(Cl)c4)CC3)cc2N1` [Example 46, 2-(3-chloro-4-fluorophenoxy)-N-{1-[(2-oxo-1,2,3,4-tetrahydroquinolin-7-yl)methyl]piperidin-4-yl}acetamide], the IC50 was 4.34 nM. Still for that read-out and setting: the same measure for `Cc1cccc(C(=O)NC2CCN(Cc3ccc4c(c3)NC(=O)CC4)CC2)c1` [Example 8, 3-methyl-N-{1-[(2-oxo-1,2,3,4-tetrahydroquinolin-7-yl)methyl]piperidin-4-yl}benzamide]: 19.2 nM; for `COc1cccc(C(=O)NC2CCN(Cc3ccc4c(c3)NC(=O)CC4)CC2)c1` [Example 2, 3-methoxy-N-{1-[(2-oxo-1,2,3,4-tetrahydroquinolin-7-yl)methyl]piperidin-4-yl}benzamide monohydrochloride, monohydrate]: 6.22 nM.

Turning to `COc1cc(OC)cc(C(=O)NC2CCN(Cc3ccc4c(c3)NC(=O)CC4)CC2)c1` [Example 19, 3,5-dimethoxy-N-{1-[(2-oxo-1,2,3,4-tetrahydroquinolin-7-yl)methyl]piperidin-4-yl}benzamide], the IC50 came out at 3.85 nM. The same measure, in the same setting: the same measure for `CC(=O)c1cccc(C(=O)NC2CCN(Cc3ccc4c(c3)NC(=O)CC4)CC2)c1` [Example 32, 3-acetyl-N-{1-[(2-oxo-1,2,3,4-tetrahydroquinolin-7-yl)methyl]piperidin-4-yl}benzamide]: 10.7 nM; for `N#Cc1cccc(C(=O)NC2CCN(Cc3ccc4c(c3)NC(=O)CC4)CC2)c1` [Example 37, 3-cyano-N-{1-[(2-oxo-1,2,3,4-tetrahydroquinolin-7-yl)methyl]piperidin-4-yl}benzamide]: 18.3 nM; for `O=C1CCc2ccc(CN3CCC(NC(=O)c4cccc(F)c4)CC3)cc2N1` [Example 3, 3-fluoro-N-{1-[(2-oxo-1,2,3,4-tetrahydroquinolin-7-yl)methyl]piperidin-4-yl}benzamide]: 10.9 nM. On to `CC(c1ccc2c(c1)NC(=O)CC2)N1CCC(NC(=O)c2ccc(F)c(Cl)c2)CC1` (stereo not drawn) [Example 51, 3-chloro-4-fluoro-N-{1-[1-(2-oxo-1,2,3,4-tetrahydroquinolin-7-yl)ethyl]piperidin-4-yl}benzamide], for which the IC50 is 1.07 nM.

Regarding `O=C1CCc2ccc(CN3CCC(NC(=O)c4cc(F)c(F)c(F)c4)CC3)cc2N1` [Example 33, 3,4,5-trifluoro-N-{1-[(2-oxo-1,2,3,4-tetrahydroquinolin-7-yl)methyl]piperidin-4-yl}benzamide], the IC50 stood at 1.96 nM.

The test system of the next assay is MCH1R.
Assay: not given
Conditions: NON-PATENT DOCUMENT 2; cited from earlier work.
For the compound `CN(C)c1nc(N[C@H]2CC[C@@H](NC(=O)c3ccc(F)c(F)c3)CC2)nc2ccccc12` [ATC0175], the “effects in experimental animal models” value is “antidepressive-like and anxiolytic-like effects”.
